ChEMBL document CHEMBL5543127, “Design, Synthesis, and Biological Evaluation of 2-Phenoxyalkylhydrazide Benzoxazole Derivatives as Quorum Sensing Inhibitors with Strong Antibiofilm Effect” (J Med Chem, 2024)
≈ marks a conversion by molar mass, not a printed value. Calls of active or inactive are those of the source. No cut-off for these calls is given here.

Tests used:
[1] = Inhibition of quorum sensing system in Pseudomonas aeruginosa PAO1-lasB-gfp assessed as reduction in fluorescence intensity measured upto 12 hrs by GFP reporter strain assay; conditions: dose 32-128 µg/ml
[2] = Inhibition of quorum sensing system in Pseudomonas aeruginosa PAO1-pqsA-gfp assessed as reduction in fluorescence intensity measured upto 12 hrs by GFP reporter strain assay; conditions: dose 32-128 µg/ml
Pseudomonas aeruginosa [3] = assay: Antibiofilm activity against logarithmic growth phase Pseudomonas aeruginosa PAO1 assessed as inhibition of biofilm formation at 16 microg/ml incubated for 20 hrs by crystal violet staining based analysis; assay type: functional
Bacillus subtilis = assay: Anti-microbial activity against Bacillus subtilis ATCC9372 incubated for 20 hrs By CLSI based micro-dilution method; assay type: functional
Pseudomonas aeruginosa [4] = assay: Induction of cell morphological change in Pseudomonas aeruginosa PAO1 at 102.4 microg/ml measured after 24 hrs by scanning electron microscopy; assay type: functional, organism-based; conditions: dose 102.4 µg/ml
Erythrocyte = assay: Hemolytic activity in mouse RBC isolated from eye ball assessed as hemolysis at 256 microg/ml incubated for 1 hr; assay type: toxicity, cell-based; conditions: dose 256 µg/ml
Pseudomonas aeruginosa [5] = assay: In vivo anti-bacterial effect in Pseudomonas aeruginosa PAO1 infected in Kunming mouse assessed as reduction in bacterial survival at 25 mg/kg, ip measured after 1 hr incubation; assay type: functional, organism-based
Pseudomonas aeruginosa [6] = assay: Induction of cell wall rupture in Pseudomonas aeruginosa PAO1 at 102.4 microg/ml measured after 24 hrs by scanning electron microscopy; assay type: functional, organism-based; conditions: dose 102.4 µg/ml
Escherichia coli = assay: Anti-microbial activity against penicillin-susceptible Escherichia coli ATCC25922 incubated for 20 hrs By CLSI based micro-dilution method; assay type: functional
Pseudomonas aeruginosa [7] = assay: In vivo induction of anti-bacterial effect in Pseudomonas aeruginosa PAO1 infected in Kunming mouse assessed as synergistic effect by measuring reduction in bacterial survival in presence of 15 mg/kg ciprofloxacin at 25 mg/kg, ip measured after 1 hr incubation; assay type: functional, organism-based
Bacillus pumilus = assay: Anti-microbial activity against Bacillus pumilus CMCC63202 incubated for 20 hrs By CLSI based micro-dilution method; assay type: functional
[8] = Inhibition of quorum sensing system in Pseudomonas aeruginosa PAO1 at logarithmic growth period assessed as inhibition of pyocyanin production at 102.4 microg/ml incubated for 18 hrs by pyocyanin inhibition assay; conditions: dose 102.4 µg/ml
Pseudomonas aeruginosa [9] = assay: Induction of anti-bacterial effect in Pseudomonas aeruginosa PAO1 assessed as synergistic effect by measuring reduction in bacterial survival in presence of clarithromycin at 16 to 128 microg/ml measured after 24 hrs incubation; assay type: functional, organism-based; conditions: dose 16-128 µg/ml
Pseudomonas aeruginosa [10] = assay: Induction of morphological changes in biofilm of Pseudomonas aeruginosa PAO1 assessed as biofilm damage at 102.4 microg/ml measured after 24 hrs by scanning electron microscopy; assay type: functional, organism-based; conditions: dose 102.4 µg/ml
Pseudomonas aeruginosa [11] = assay: In vivo induction of anti-bacterial effect in Pseudomonas aeruginosa PAO1 infected in Kunming mouse assessed as synergistic effect by measuring reduction in bacterial survival in presence of 15 mg/kg ciprofloxacin at 5 mg/kg, ip measured after 1 hr incubation relative to ciprofloxacin alone; assay type: functional, organism-based
Staphylococcus aureus [12] = assay: Anti-microbial activity against methicillin-resistant Staphylococcus aureus ATCC43300 incubated for 20 hrs By CLSI based micro-dilution method; assay type: functional
Pseudomonas aeruginosa [13] = assay: Induction of anti-bacterial effect in Pseudomonas aeruginosa PAO1 assessed as synergistic effect by measuring reduction in bacterial survival in presence of ciprofloxacin measured after 24 hrs incubation; assay type: functional, organism-based; conditions: dose 8-128 µg/ml
Pseudomonas aeruginosa [14] = assay: Anti-microbial activity against penicillin-susceptible Pseudomonas aeruginosa 27853 incubated for 20 hrs By CLSI based micro-dilution method; assay type: functional
Staphylococcus aureus [15] = assay: Anti-microbial activity against erythromycin-susceptible Staphylococcus aureus ATCC25923 incubated for 20 hrs By CLSI based micro-dilution method; assay type: functional
Pseudomonas aeruginosa [16] = assay: Antibacterial activity against Pseudomonas aeruginosa PAO1 at logarithmic growth phase assessed as growth inhibition at 153.6 microg/ml measured upto 25 hrs by growth curve assay; assay type: functional, organism-based; conditions: dose 153.6 µg/ml
Pseudomonas aeruginosa [17] = assay: Antibiofilm activity against logarithmic growth phase Pseudomonas aeruginosa PAO1 assessed as inhibition of biofilm formation at 32 microg/ml incubated for 20 hrs by crystal violet staining based analysis; assay type: functional
Pseudomonas aeruginosa [18] = assay: Induction of anti-bacterial effect in Pseudomonas aeruginosa PAO1 assessed as synergistic effect by measuring reduction in bacterial survival in presence of ciprofloxacin at 16 to 128 microg/ml measured after 24 hrs incubation; assay type: functional, organism-based; conditions: dose 16-128 µg/ml
Pseudomonas aeruginosa [19] = assay: Anti-microbial activity against Pseudomonas aeruginosa PAO1 incubated for 20 hrs By CLSI based micro-dilution method; assay type: functional
Pseudomonas aeruginosa [20] = assay: Inhibition of protease in logarithmic growth phase Pseudomonas aeruginosa PAO1 assessed as inhibition rate at 102.4 microg/ml measured after 32 hrs; conditions: dose 102.4 µg/ml
Pseudomonas aeruginosa [21] = assay: Antibacterial activity against Pseudomonas aeruginosa 27853 at logarithmic growth phase assessed as growth inhibition at 153.6 microg/ml measured upto 25 hrs by growth curve assay; assay type: functional, organism-based; conditions: dose 153.6 µg/ml
Pseudomonas aeruginosa [22] = assay: Induction of anti-bacterial effect in Pseudomonas aeruginosa PAO1 assessed as synergistic effect by measuring reduction in bacterial survival in presence of ciprofloxacin at 128 microg/ml measured after 24 hrs incubation relative to control; assay type: functional; conditions: dose 128 µg/ml
[23] = Inhibition of quorum sensing system in Pseudomonas aeruginosa PAO1-gfp assessed as reduction in fluorescence intensity at 32 to 128 microg/ml measured upto 12 hrs by GFP reporter strain assay; conditions: dose 32-128 µg/ml
Pseudomonas aeruginosa [24] = assay: Induction of anti-bacterial effect in Pseudomonas aeruginosa PAO1 assessed as synergistic effect by measuring reduction in bacterial survival in presence of clarithromycin measured after 24 hrs incubation; assay type: functional, organism-based; conditions: dose 8-128 µg/ml
Pseudomonas aeruginosa [25] = assay: Inhibition of swarming movement of Pseudomonas aeruginosa PAO1 assessed as movement state of bacterial clusters after 24 hrs by swarming motility assay; assay type: functional, organism-based; conditions: dose 25.6-102.4 µg/ml
[26] = Inhibition of quorum sensing system in Pseudomonas aeruginosa PAO1- rhlA-gfp assessed as reduction in fluorescence intensity measured upto 12 hrs by GFP reporter strain assay; conditions: dose 32-128 µg/ml
Pseudomonas aeruginosa [27] = assay: Anti-bacterial effect in Pseudomonas aeruginosa PAO1 assessed as reduction in bacterial survival by measuring inhibition rate at 0.4 microg/ml measured after 24 hrs incubation relative to control; assay type: functional

O=C(COc1ccc(F)cc1)NNc1nc2ccccc2o1
inhibition [1]: Dose-Dependent Effect | inhibition [2]: Dose-Dependent Effect | inhibition at 16 µg/mL (Pseudomonas aeruginosa [3]): > 50% | MIC (Bacillus subtilis): 512 µg/mL (≈ 1700 µM) | Activity (Pseudomonas aeruginosa [4]): inactive | Activity (Erythrocyte): Non-Toxic | Activity (Pseudomonas aeruginosa [5]): inactive | Activity (Pseudomonas aeruginosa [6]): inactive | MIC (Escherichia coli): > 512 µg/mL | Activity (Pseudomonas aeruginosa [7]): Active | MIC (Bacillus pumilus): > 512 µg/mL | inhibition [8]: 43.6% | Activity (Pseudomonas aeruginosa [9]): Active | Activity (Pseudomonas aeruginosa [10]): Active | Activity (Pseudomonas aeruginosa [11]): Active | MIC (Staphylococcus aureus [12]): > 512 µg/mL | Activity (Pseudomonas aeruginosa [13]): Dose-Dependent Effect | MIC (Pseudomonas aeruginosa [14]): 512 µg/mL (≈ 1700 µM) | MIC (Staphylococcus aureus [15]): > 512 µg/mL | Activity (Pseudomonas aeruginosa [16]): inactive | inhibition at 32 µg/mL (Pseudomonas aeruginosa [17]): > 76.6% | Activity (Pseudomonas aeruginosa [18]): Active | MIC (Pseudomonas aeruginosa [19]): 512 µg/mL (≈ 1700 µM) | inhibition (Pseudomonas aeruginosa [20]): 10% | Activity (Pseudomonas aeruginosa [21]): inactive | Activity (Pseudomonas aeruginosa [22]): >90% | inhibition [23]: Dose-Dependent Effect | Activity (Pseudomonas aeruginosa [24]): Dose-Dependent Effect | inhibition (Pseudomonas aeruginosa [25]): Dose-Dependent Effect | inhibition [26]: Dose-Dependent Effect

O=C(O)c1cn(C2CC2)c2cc(N3CCNCC3)c(F)cc2c1=O [CIPROFLOXACIN]
inhibition at 0.4 µg/mL (Pseudomonas aeruginosa [27]): 42%
